This passage reports Activity and inhibition results from ChEMBL document CHEMBL4138192, “Design, synthesis and evaluation of novel dihydrostilbene derivatives as potential anti-melanogenic skin-protecting agents” (Eur J Med Chem, 2018).

Series [1] addresses T1, Tyrosinase (Mus musculus) (UniProt P11344).
T1 sequence (whole entry): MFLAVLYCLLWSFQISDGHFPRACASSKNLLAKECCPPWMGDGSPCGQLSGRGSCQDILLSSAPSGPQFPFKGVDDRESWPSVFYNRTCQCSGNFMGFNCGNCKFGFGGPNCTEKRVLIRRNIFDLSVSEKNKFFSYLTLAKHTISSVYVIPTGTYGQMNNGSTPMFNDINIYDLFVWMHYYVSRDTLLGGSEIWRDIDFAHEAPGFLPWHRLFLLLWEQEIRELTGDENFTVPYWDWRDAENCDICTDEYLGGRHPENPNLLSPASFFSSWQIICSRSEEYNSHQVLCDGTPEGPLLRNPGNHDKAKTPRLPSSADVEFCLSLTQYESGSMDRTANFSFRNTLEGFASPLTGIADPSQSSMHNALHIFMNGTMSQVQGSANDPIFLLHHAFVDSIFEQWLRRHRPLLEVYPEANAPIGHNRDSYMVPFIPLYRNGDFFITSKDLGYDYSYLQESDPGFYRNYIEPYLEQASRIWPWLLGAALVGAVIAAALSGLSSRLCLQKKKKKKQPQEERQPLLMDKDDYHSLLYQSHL
Kind of series: Inhibition of tyrosinase in mouse B16 cells assessed as effect on alpha-MSH-induced melanin formation at 25 uM after 24 hrs relative to control. On the set-up: scale not given: the % may be the effect or the level left. The series is classed as cell-based.

Series [2] is described as follows: Growth inhibition of mouse B16 cells at 25 uM after 48 hrs by SRB assay relative to control. Format: cell-based. The settings on record: read-out: GI. (In general: The SRB assay estimates cell density from bound dye.)
The target in series [3] is T2, Tyrosinase (Homo sapiens) (UniProt P14679).
T2 sequence (whole entry): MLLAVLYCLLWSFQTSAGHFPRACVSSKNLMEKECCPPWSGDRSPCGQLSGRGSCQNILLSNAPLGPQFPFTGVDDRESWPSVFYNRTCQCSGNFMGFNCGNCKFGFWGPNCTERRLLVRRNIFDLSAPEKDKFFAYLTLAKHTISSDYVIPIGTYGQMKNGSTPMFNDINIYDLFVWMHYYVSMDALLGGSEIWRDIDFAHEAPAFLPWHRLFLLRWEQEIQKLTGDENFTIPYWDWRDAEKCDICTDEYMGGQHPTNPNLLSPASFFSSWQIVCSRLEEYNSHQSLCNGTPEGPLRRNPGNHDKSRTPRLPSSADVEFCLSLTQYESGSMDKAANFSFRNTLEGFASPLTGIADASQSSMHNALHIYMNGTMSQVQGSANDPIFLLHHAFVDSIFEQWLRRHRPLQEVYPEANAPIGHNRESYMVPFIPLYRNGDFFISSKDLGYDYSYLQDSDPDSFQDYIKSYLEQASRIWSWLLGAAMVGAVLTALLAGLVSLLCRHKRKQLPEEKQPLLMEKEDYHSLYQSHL
Kind of series: Inhibition of tyrosinase in human A375 cells assessed as effect on alpha-MSH-induced melanin formation at 25 uM after 24 hrs relative to control. The series is classed as cell-based. On the set-up: scale not given: the % may be the effect or the level left.

Series [4] in a line: Growth inhibition of human A375 cells at 25 uM after 48 hrs by SRB assay relative to control. The settings on record: read-out: GI. The series is classed as cell-based, A-375.
Series [5] concerns the target T1, Tyrosinase (Mus musculus). The series is described as follows: Inhibition of tyrosinase in mouse B16 cells at 25 uM using L-DOPA as substrate after 24 hrs by spectrophotometric method. Format: cell-based.
A short description of series [6]: Antioxidant activity assessed as ABTS radical scavenging activity at 25 uM after 15 mins. Format: functional. On the set-up: reference not given here.
For series [7], the target named is T2, Tyrosinase (Homo sapiens). The series is described as follows: Inhibition of tyrosinase in human A375 cells at 25 uM using L-DOPA as substrate after 24 hrs by spectrophotometric method. Format: cell-based.
Series [8] concerns A-375. The series is described as follows: Inhibition of alpha-MSH-induced TRP-1 expression in human A375 cells at 25 uM after 24 hrs by Western blot method. The series is classed as functional, cell-based. Background: Immunoblotting shows a protein as a band on a membrane.
Series [9] has as its system A-375. Kind of series: Inhibition of alpha-MSH-induced reactive oxygen species generation in human A375 cells at 25 uM after 4 hrs by DCFDA staining-based fluorescence assay. Format: functional, cell-based.
Series [10] deals with A-375. The series is described as follows: Inhibition of alpha-MSH-induced TRP-2 expression in human A375 cells at 25 uM after 24 hrs by Western blot method. Format: functional, cell-based.

SMILES strings stand for the structures. Calls of active or inactive are those of the source. The calls are words filed in the database; no cut-off is given here.

On to `O=C(OCc1ccccc1)Oc1ccc(CCc2cc(OC(=O)OCc3ccccc3)cc(OC(=O)OCc3ccccc3)c2)cc1`, for which the Activity is 89.9% in series [1] and 92.4% in [3]. Further, the inhibition at 48 h, 25 µM in series [2] was found to be 5.12%; in series [4], 6.35%.
For `CCCC(=O)Oc1ccc(CCc2cc(OC(=O)CCC)cc(OC(=O)CCC)c2)cc1`, the inhibition entry in [5] was “inactive”. The results for the Activity in [6], in series [1] and in series [3] were 94.3 mg.equiv, 96.2% and 98.9%, respectively. For the same compound, the inhibition at 48 h, 25 µM in series [2] came out at 4.81%; in series [4], 17.9%. The inhibition entry in series [7] is “Active”.
Turning to `CC(C)(C)C(=O)Oc1ccc(CCc2cc(OC(=O)C(C)(C)C)cc(OC(=O)C(C)(C)C)c2)cc1`, the Activity turned out to be 93% in series [1] and 94.6% in series [3]. Moreover, the figures for the inhibition at 48 h, 25 µM in series [2] and in [4] were 6.91% and 9.53%, respectively.
In the case of `C=CC(=O)Oc1ccc(CCc2cc(OC(=O)C=C)cc(OC(=O)C=C)c2)cc1`, the inhibition result in series [5], in series [8], in [9], in [7] and in series [10] was “Active” each time. In addition, the results for the Activity in series [6], in series [1] and in [3] were 15.9 mg.equiv, 76% and 50.5%, respectively. For the same compound, the inhibition at 48 h, 25 µM in series [2] came out at 13.9%; in series [4], 15.6%.
Turning to `O=C(Oc1ccc(CCc2cc(OC(=O)C3CCCC3)cc(OC(=O)C3CCCC3)c2)cc1)C1CCCC1`, the Activity in series [1] was 95.9%; in [3] it was 97.2%. Besides, the values for the inhibition at 48 h, 25 µM in [2] and in [4] were 9.69% and 14.3%, respectively.
For `O=C(Oc1ccc(CCc2cc(OC(=O)c3ccccc3)cc(OC(=O)c3ccccc3)c2)cc1)c1ccccc1` the same measures were 87%, 85.2%, 4.92% and 4.55%.
As to `COc1ccc(C(=O)Oc2ccc(CCc3cc(OC(=O)c4ccc(OC)cc4)cc(OC(=O)c4ccc(OC)cc4)c3)cc2)cc1`, the Activity in [1] is 94.7%; in [3] it was 104%. Further, the figures for the inhibition at 48 h, 25 µM in series [2] and in series [4] were 5.12% and 6.05%, respectively.
As for `C=CCOc1ccc(CCc2cc(OCC=C)cc(OCC=C)c2)cc1`, the inhibition result in [5] is “inactive”. Besides, the Activity in series [6] was 119 mg.equiv; in [1], 96.5%; in series [3], 88.1%. The results for the inhibition at 48 h, 25 µM in series [2] and in series [4] were 1.31% and 6.83%, respectively. In addition, in [7], the inhibition entry is “Active”.
Regarding `Oc1ccc(/C=C/c2cc(O)cc(O)c2)cc1` [RESVERATROL], the Activity in series [1] is 80.2%; in series [3], 80.4%. Besides, the inhibition at 48 h, 25 µM in series [2] was 13.1%; in series [4], 9.79%. Also, the inhibition entry in [8], in series [9] and in series [10] was “Active” each time.
`Oc1ccc(CCc2cc(O)cc(O)c2)cc1` [DIHYDRORESVERATROL]: the values for the Activity in series [6], in [1] and in series [3] were 4970 mg.equiv, 78.3% and 78%, respectively. The inhibition at 48 h, 25 µM in series [2] is 5.2%; in [4] it was 6.42%. In addition, the inhibition entry in [8], in [9] and in [10] was “Active” in each case.
With `O=C(Oc1ccc(CCc2cc(OC(=O)c3ccc(Cl)cc3)cc(OC(=O)c3ccc(Cl)cc3)c2)cc1)c1ccc(Cl)cc1`, the Activity in series [1] was 99.2%; in [3], 93.4%. Moreover, the values for the inhibition at 48 h, 25 µM in series [2] and in series [4] were 5.26% and 21.5%, respectively.
On to `CCCOc1ccc(CCc2cc(OCCC)cc(OCCC)c2)cc1`, for which the Activity in series [6] turned out to be 30.2 mg.equiv; in [1] it was 94.7%; in series [3], 85.1%. Besides, the inhibition at 48 h, 25 µM in series [2] came out at 1.34%; in series [4] it was 3.36%.
On to `O=C1O[C@H]([C@@H](O)CO)C(O)=C1O` [ASCORBIC ACID], for which the Activity was 83.7% in series [1] and 75% in series [3]. Further, the inhibition at 48 h, 25 µM in [2] was found to be 4.94%; in [4], 8.63%. The inhibition result in [8] and in series [10] was “Active” each time.
